# Paper PMC12406203 (Journal of Medicinal Chemistry, 2025)
# Values joined by “and” are separate entries in the source; they are usually repeats but may differ in a detail not shown here. Equal entries are not always repeated.
# Assays:
# [1] = tested on: ABL1(E255K)-phosphorylated
# [2] = tested on: JAK2(JH1domain-catalytic)
# [3] = tested on: scopolamine-induced cognitive deficits in mice; assay: Passive avoidance task, scopolamine-induced amnesia; assay type: in vivo
# From the text: In the scopolamine model, the PA and NOR tasks were used for dose selection for further testing.
# The mice had unlimited access to food and water prior to the experiment. Specified conditions for the maintenance of mice were ensured throughout the experiment, including tree bedding (Transwior, Poland) and cage enrichment (tunnels, nesting material, wooden igloos, etc.). For behavioral tests, the mice were selected randomly; each group consisted of 7–10 mice.
# Scopolamine hydrobromide (Sigma-Aldrich, Poland) at the dose of 1 mg/kg was used to induce learning and memory deficits. For the in vivo tests, scopolamine was prepared in distilled water (Polfa Kutno, Poland) and was administered subcutaneously (s.c.) 30 min before behavioral tests during the acquisition (training) trial of PA and NOR tasks. […] They were administered intraperitoneally (i.p.) 60 min before the acquisition trial of the PA, NOR, and MWM tasks.
# The PA apparatus (Panlab Harvard Apparatus, Spain) consists of a large white-colored illuminated compartment (26 cm × 26 cm × 34 cm) and a small black-colored compartment (13 cm × 7.5 cm × 7.5 cm), which are separated from each other by a guillotine gate (5 cm × 5 cm). The PA task is divided into two trials (i.e., the acquisition trial and the retention trial), each conducted 24 h apart. On the first day, during the acquisition trial (a conditioning phase), the test compounds (94 and 95, neflamapimod and vehicle) were injected. Also, before the acquisition trial, scopolamine or LPS was administered at selected time points. Then, each mouse was placed into the white compartment, and a 30 s habituation period began (guillotine gate is closed). After that, the guillotine gate was opened, and the mice were tested during the 180 s testing period. As soon as the mouse entered the black compartment of the PA device, the guillotine gate was closed and an electrical shock (intensity: 0.2 mA, duration: 2 s) was automatically applied through the grid floor. For each mouse, the latency between the opening of the guillotine gate and the mouse’s entering the black compartment was measured. On the next day, during the retention (drug-off) trial, the mice were placed again into the white compartment for a 30 s habituation period, and the latency to enter the black compartment was measured for each mouse.
# LPS-treated mice = assay: Morris water maze task, LPS model of neuroinflammation; assay type: in vivo; details: 10 mg/kg i.p.; from day 2 (94) or day 3 (95) to day 6; vs LPS alone
# Experimental: The compounds were administered for 10 consecutive days, and on the last 6 days of their administration, LPS was also administered intraperitoneally 5 h before the test compounds. On these 6 days, the acquisition phase of the MWM task was performed. One day later, the retention, drug-off trial of the MWM task was carried out.
# In the LPS model adult male C57BL/6J mice (Animal Breeding Farm of the Faculty of Pharmacy, Jagiellonian University Medical College) of similar weight and age were used. […] The mice had unlimited access to food and water prior to the experiment. Specified conditions for the maintenance of mice were ensured throughout the experiment, including tree bedding (Transwior, Poland) and cage enrichment (tunnels, nesting material, wooden igloos, etc.). For behavioral tests, the mice were selected randomly; each group consisted of 7–10 mice. […] After in vivo tests, the animals were immediately euthanized, and their tissues were collected and stored for further ex vivo testing.
# LPS (Lipopolysaccharide from Escherichia coli O111:B4, Sigma-Aldrich, Poland) was used to induce neuroinflammation in mice. […] They were administered intraperitoneally (i.p.) 60 min before the acquisition trial of the PA, NOR, and MWM tasks. […] In the rotarod, locomotor activity, and MWM tests, only one dose effective in the scopolamine model of amnesia was evaluated.
# The Morris water maze is a circular, plastic, and gray-painted pool (120 cm in diameter and 60 cm in height), filled with water (up to about 48 cm below the edge to prevent an animal from jumping out), maintained at 23 ± 1 °C. The pool was divided into four equal quadrants (compass locations: NE, NW, SE, SW) by a computerized video tracking system (SMART, ver. 3.0; Panlab, Spain). An escape platform (11 cm in diameter and 47 cm in height) at a fixed location (the center of the NW quadrant, i.e., the target quadrant) was made of transparent Plexiglas, being invisible to the swimming animal, and was immersed 1 cm under the surface of water. The maze was lighted with an intensity of 45 lx. […] The time taken to reach the hidden platform (escape latency) on days 1–6 was recorded for each mouse and analyzed. Each animal was released from a different starting point and was allowed to swim for 60 s. […] On the seventh day (a drug-off trial conducted 24 h after the last training trial), the platform was removed from the pool, and a probe trial was performed (without drug treatmentassessment of memory retention).
# [4] = tested on: TLR4, COX-2, NLRP3, cPLA2 levels in brains of LPS-treated mice; assay: Western blot of brains of LPS-treated mice (ex vivo); assay type: in vivo; details: 94, 95: 10 mg/kg i.p.; rivastigmine 1 mg/kg i.p.; vs LPS-treated control
# Experimental: After the completion of cognitive assays carried out in the LPS model, the mice were sacrificed, and their brains were collected and stored for further analysis. In the ex vivo part of the study, murine brains were homogenized using T-PER mammalian protein extraction reagent (Thermo Fisher Scientific, Waltham, MA, USA) with protease (Merck Millipore, Burlington, MA, USA) and phosphatase inhibitors (Cayman Chemical, Ann Arbor, MI, USA). The total protein concentrations were determined using the Bradford reaction. Forty μg of the total proteins were solubilized in Laemmli buffer with 2% 2-mercaptoethanol and were subject to 10% SDS-polyacrylamide gel electrophoresis. The anticyclooxygenase 2 (COX-2, diluted 1:1000), antitoll-like receptor 4 (TLR4, diluted 1:1000), anticytosolic phospholipase A2 (cPLA2, 1:1000), and anti-inflammasome (NLPR3, diluted 1:500) were used (Thermo Fisher Scientific, Waltham, MA, USA). The endogenous control was β-actin (1:1000) (Thermo Fisher Scientific, Waltham, MA, USA). The secondary antibody was antirabbit IgG (HRP) diluted 1:2000 (Thermo Fisher Scientific, Waltham, MA, USA). Proteins were detected using the Clarity Western ECL Luminol Substrate (Bio-Rad, Hercules, CA, USA). Chemi Doc Camera with Image Lab 6.1 software (Bio-Rad) was used to quantify the integrated optical density of the bands. The results were normalized to the data obtained for β-actin after stripping the PVDF membrane using Restore Western Blot Stripping Buffer (Thermo Fisher Scientific, Waltham, MA, USA) and expressed as relative to the control. This thorough process ensures the validity and reliability of the results.
# hAChE = hAChE (Homo sapiens, UniProt P22303)
# hAChE, sequence (P22303 32-614): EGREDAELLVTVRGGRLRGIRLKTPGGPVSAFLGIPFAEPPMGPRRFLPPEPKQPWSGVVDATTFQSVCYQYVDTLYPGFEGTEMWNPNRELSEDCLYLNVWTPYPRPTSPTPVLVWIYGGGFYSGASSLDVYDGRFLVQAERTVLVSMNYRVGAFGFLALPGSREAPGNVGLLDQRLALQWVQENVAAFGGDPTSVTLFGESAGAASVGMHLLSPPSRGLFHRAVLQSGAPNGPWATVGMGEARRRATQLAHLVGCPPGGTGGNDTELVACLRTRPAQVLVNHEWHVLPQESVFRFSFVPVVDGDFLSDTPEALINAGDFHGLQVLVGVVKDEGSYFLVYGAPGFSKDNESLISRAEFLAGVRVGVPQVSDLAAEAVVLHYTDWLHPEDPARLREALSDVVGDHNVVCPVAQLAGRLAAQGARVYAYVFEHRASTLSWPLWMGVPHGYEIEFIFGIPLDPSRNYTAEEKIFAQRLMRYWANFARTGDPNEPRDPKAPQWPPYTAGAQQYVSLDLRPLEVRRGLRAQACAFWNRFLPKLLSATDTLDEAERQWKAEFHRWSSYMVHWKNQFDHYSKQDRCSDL
# [5] = Pharmacokinetic study in mice
# [6] = male, CD-1, mouse, brain, ip, 10 mg/kg
# [7] = male, CD-1, mouse, serum, ip, 10 mg/kg
compound,measurement,setting,value
"CC(C)Cn1ncc2cc(Cc3ccc(F)cc3F)c(C(=O)NCCN(C)C)cc21 [Compound 94, 5-(2,4-Difluorobenzyl)-N-(2-(dimethylamino)ethyl)-1-isobutyl-1H-indazole-6-carboxamide]",RA @ 1000nM,[1],96%
same,RA @ 10000nM,[1],55%
same,RA @ 1000nM,AURKA,96%
same,RA @ 10000nM,AURKA,93%
same,RA @ 1000nM,AXL,97%
same,RA @ 10000nM,AXL,89%
same,RA @ 1000nM,BRAF(V600E),100%
same,RA @ 10000nM,BRAF(V600E),100%
same,RA @ 1000nM,CSF1R,100%
same,RA @ 10000nM,CSF1R,86%
same,RA @ 1000nM,CSNK1G2,96%
same,RA @ 10000nM,CSNK1G2,93%
same,RA @ 1000nM,DYRK1B,100%
same,RA @ 10000nM,DYRK1B,85%
same,RA @ 1000nM,EGFR(L858R),100%
same,RA @ 10000nM,EGFR(L858R),66%
same,RA @ 1000nM,IKKα,82%
same,RA @ 10000nM,IKKα,87%
same,RA @ 1000nM,INSR,81%
same,RA @ 10000nM,INSR,90%
same,RA @ 1000nM,[2],98%
same,RA @ 10000nM,[2],100%
same,RA @ 1000nM,JNK1,77%
same,RA @ 10000nM,JNK1,41%
same,RA @ 1000nM,JNK2,52%
same,RA @ 10000nM,JNK2,8.3%
same,RA @ 1000nM,KIT,100%
same,RA @ 10000nM,KIT,100%
same,RA @ 1000nM,LKB1,100%
same,RA @ 10000nM,LKB1,96%
same,RA @ 1000nM,MET,96%
same,RA @ 10000nM,MET,100%
same,RA @ 1000nM,NLK,100%
same,RA @ 10000nM,NLK,98%
same,RA @ 1000nM,p38δ,97%
same,RA @ 10000nM,p38δ,100%
same,RA @ 1000nM,PCTK1,96%
same,RA @ 10000nM,PCTK1,92%
same,RA @ 1000nM,PDGFRB,100%
same,RA @ 10000nM,PDGFRB,97%
same,RA @ 1000nM,PIK3CA,77%
same,RA @ 10000nM,PIK3CA,95%
same,RA @ 1000nM,PIK3CG,86%
same,RA @ 10000nM,PIK3CG,85%
same,RA @ 1000nM,PIM1,95%
same,RA @ 10000nM,PIM1,100%
same,RA @ 1000nM,PIM3,100%
same,RA @ 10000nM,PIM3,100%
same,RA @ 1000nM,PLK4,100%
same,RA @ 10000nM,PLK4,100%
same,RA @ 1000nM,RET,100%
same,RA @ 10000nM,RET,100%
same,RA @ 1000nM,RIOK2,85%
same,RA @ 10000nM,RIOK2,92%
same,RA @ 1000nM,SNARK,100%
same,RA @ 10000nM,SNARK,93%
same,RA @ 1000nM,TGFBR1,100%
same,RA @ 10000nM,TGFBR1,100%
same,RA @ 1000nM,YANK3,100%
same,RA @ 10000nM,YANK3,100%
same,efficacy in PA task,"[3]; 5 mg/kg i.p., scopolamine model",not statistically significantly effective
same,"step-through latency, retention trial (PA task)","[3]; 10 mg/kg i.p., vs scopolamine-treated control mice",statistically significant prolonged step-through latency
same,"escape latency, acquisition phase (days 1–6) of MWM",LPS-treated mice,statistically significant decrease in escape latency from day 2
same,brain cPLA2 expression,[4],no difference
same,"brain levels of TLR4, COX-2, and NLRP3",[4],significantly lower levels
same,AChE inhibition,hAChE; at a concentration of 100 μM,did not inhibit AChE
same,hAChE RA at 100 μM,"hAChE; residual activity at 100 μM, mean ± SD, one experiment in triplicate",69.0% and 69 ± 4%
same,elimination half-life in brain compared to serum,"[5]; 10 mg/kg i.p., mice",over 2 fold
same,AUC0‑∞,"[5]; brain, 10 mg/kg i.p., mice",50863.30 ng·min/mL(g)
same,AUC0–t,"[5]; brain, 10 mg/kg i.p., mice",48459.19 ng·min/mL(g)
same,t0.5λz,"[5]; brain, 10 mg/kg i.p., mice",210.94 min
same,Cmax,[5]; [6],658 ng/g
same,MRT,[5]; [6],102 min
same,Tmax,[5]; [6],15 min
same,k el,[5]; [6],5.5e-05 s⁻¹
same,Kp,"[5]; male, CD-1, mouse, brain/serum, ip, 10 mg/kg",1.58
same,AUC,[5]; [7],536 ng·h/mL
same,AUC(0-t),[5]; [7],532 ng·h/mL
same,CL/F,[5]; [7],310 mL/min/kg
same,Cmax,[5]; [7],946 ng/mL
same,MRT,[5]; [7],53.8 min
same,Tmax,[5]; [7],5 min
same,Vd/F,[5]; [7],46 L/kg
same,k el,[5]; [7],0.000112 s⁻¹
same,AUC0–t ratio compound 94 to compound 95,"[5]; serum, 10 mg/kg i.p., mice",0.53
same,t0.5λz,"[5]; serum, 10 mg/kg i.p., mice",102.50 min
